Among the data in the NIST ThermoML archive (doi:10.1021/je500389t) are viscosity and mass density values, retold here.

The conditions of data set [1]: 101 kPa, Liquid; for viscosity: Capillary tube (Ostwald / Ubbelohde) method; for mass density: Pycnometric method.
A short description of data set [2]: xn = mol fraction of the nth substance listed. The conditions noted are these: 101 kPa, Liquid, Capillary tube (Ostwald / Ubbelohde) method, x2 = 0.

SMILES strings stand for the structures. Numbers after ± are expanded uncertainties.

In general, viscosity refers to the internal friction of a fluid under shear. For orientation: mass density means mass per unit of volume. Turning to `COCCOCCOC` [2,5,8-trioxanonane], the viscosity in data set [1] (293.15 K) turned out to be 1.09 ± 0.04 mPa·s; in data set [1] (298.15 K) it was 0.998 ± 0.041 mPa·s; in data set [1] (303.15 K), 0.914 ± 0.04 mPa·s; in data set [1] (308.15 K), 0.834 ± 0.04 mPa·s; in data set [1] (313.15 K), 0.785 ± 0.04 mPa·s. Moreover, the mass density turned out to be 945.2 ± 2 kg/m3 in data set [1] (293.15 K); 939.8 ± 2 kg/m3 in data set [1] (298.15 K); 935 ± 2 kg/m3 in data set [1] (303.15 K); 930.7 ± 2 kg/m3 in data set [1] (308.15 K); 925.4 ± 2 kg/m3 in data set [1] (313.15 K).
As for `O` [water], the viscosity came to 1.01 ± 0.04 mPa·s in data set [1] (293.15 K); 0.89 ± 0.04 mPa·s in data set [1] (298.15 K); 0.801 ± 0.04 mPa·s in data set [1] (303.15 K); 0.723 ± 0.04 mPa·s in data set [1] (308.15 K); 0.656 ± 0.04 mPa·s in data set [1] (313.15 K).
Take `O` [water] + COCCOCCOC: the viscosity in data set [2] (293.15 K) amounted to 1.01 ± 0.04 mPa·s; in data set [2] (298.15 K), 0.89 ± 0.04 mPa·s; in data set [2] (303.15 K), 0.801 ± 0.04 mPa·s; in data set [2] (308.15 K), 0.723 ± 0.04 mPa·s; in data set [2] (313.15 K), 0.656 ± 0.04 mPa·s.
